Data published in patent US20250136576A1, “Heterocyclic Compounds and Uses Thereof” (ACEA Therapeutics, Inc., priority 2021, published 2025).

Tested on: KM12-luc cells
Assay: Cell proliferation and growth inhibition assay (CCK-8) in KM12-luc
Format: cell-based
Conditions: KM12-Luc, 72 h, KM12-luc cells, treated with test compounds for 72 hrs, CCK-8 viability; read-out: NTRK IC50 in KM12-luc
Outline: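 Cells were grown at 37 °C, 5% CO2 with 10% FBS: MV-4-11 in IMDM, H1975 in RPMI 1640, KM12-luc in DMEM. Viability was read by CCK-8 (1-4 hrs reagent incubation, absorbance at OD450). IC50 came from a non-linear sigmoidal dose-response fit.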

SMILES | IC50
CC(=O)Nc1cc(Nc2ncc(C(F)(F)F)c(-c3c[nH]c4ccccc34)n2)ccc1OCCN(C)C [Compound 304, N-(5-((4-(1H-indol-3-yl)-5-(trifluoromethyl)pyrimidin-2-yl)amino)-2-(2-(dimethylamino)ethoxy)phenyl)acetamide] | 75.1 nM
CN(C)CCN(C)c1ccc(Nc2ncc(C(F)(F)F)c(-c3cn(C)c4ccccc34)n2)cc1N [Compound 306, N^1-(2-(dimethylamino)ethyl)-N^1-methyl-N^4-(4-(1-methyl-1H-indol-3-yl)-5-(trifluoromethyl)pyrimidin-2-yl)benzene-1,2,4-triamine] | 56.1 nM
CC(=O)Nc1cc(Nc2ncc(C(F)(F)F)c(-c3cn(C)c4ccccc34)n2)cc(F)c1N(C)CCN(C)C [Compound 308, N-(2-((2-(dimethylamino)ethyl)(methyl)amino)-3-fluoro-5-((4-(1-methyl-1H-indol-3-yl)-5-(trifluoromethyl)pyrimidin-2-yl)amino)phenyl)acetamide] | 139 nM
CCN(CCN(C)C)c1ccc(Nc2ncc(C(F)(F)F)c(-c3cn(C)c4ccccc34)n2)cc1NC(C)=O [Compound 309, N-(2-((2-(dimethylamino)ethyl)(ethyl)amino)-5-((4-(1-methyl-1H-indol-3-yl)-5-(trifluoromethyl)pyrimidin-2-yl)amino)phenyl)acetamide] | 135 nM
CCN(CCN(C)C)c1ccc(Nc2ncc(C(F)(F)F)c(-c3cn(C)c4ccccc34)n2)cc1N [Compound 310, N^1-(2-(dimethylamino)ethyl)-N^1-ethyl-N^4-(4-(1-methyl-1H-indol-3-yl)-5-(trifluoromethyl)pyrimidin-2-yl)benzene-1,2,4-triamine] | 305 nM
CC(=O)Nc1cc(Nc2ncc(C(F)(F)F)c(-c3cn(C)c4ccccc34)n2)c(F)cc1N(C)CCN(C)C [Compound 313, N-(2-((2-(dimethylamino)ethyl)(methyl)amino)-4-fluoro-5-((4-(1-methyl-1H-indol-3-yl)-5-(trifluoromethyl)pyrimidin-2-yl)amino)phenyl)acetamide] | 308 nM
CC(=O)Nc1cc(Nc2ncc(C(F)(F)F)c(-c3cn(C)c4ccccc34)n2)ccc1N(CCN(C)C)C(C)=O [Compound 314a, N-(2-acetamido-4-((4-(1-methyl-1H-indol-3-yl)-5-(trifluoromethyl)pyrimidin-2-yl)amino)phenyl)-N-(2-(dimethylamino)ethyl)acetamide] | 63.2 nM
Cc1nc2cc(Nc3ncc(C(F)(F)F)c(-c4cn(C)c5ccccc45)n3)ccc2n1CCN(C)C [Compound 314b, 1-(2-(dimethylamino)ethyl)-2-methyl-N-(4-(1-methyl-1H-indol-3-yl)-5-(trifluoromethyl)pyrimidin-2-yl)-1H-benzo[d]imidazol-5-amine] | 139 nM
CC(=O)Nc1cc(Nc2ncc(C(F)(F)F)c(-c3cn(C)c4ccccc34)n2)ccc1OCCN(C)C [Compound 315, N-(2-(2-(dimethylamino)ethoxy)-5-((4-(1-methyl-1H-indol-3-yl)-5-(trifluoromethyl)pyrimidin-2-yl)amino)phenyl)acetamide] | 85.1 nM
CN(C)CCN(C)c1ccc(Nc2ncc(C(F)(F)F)c(-c3c[nH]c4cccc(F)c34)n2)cc1N [Compound 317, N^1-(2-(dimethylamino)ethyl)-N^4-(4-(4-fluoro-1H-indol-3-yl)-5-(trifluoromethyl)pyrimidin-2-yl)-N^1-methylbenzene-1,2,4-triamine] | 24.9 nM
CCN(CCN(C)C)c1ccc(Nc2ncc(C(F)(F)F)c(-c3c[nH]c4cccc(F)c34)n2)cc1NC(C)=O [Compound 318, N-(2-((2-(dimethylamino)ethyl)(ethyl)amino)-5-((4-(4-fluoro-1H-indol-3-yl)-5-(trifluoromethyl)pyrimidin-2-yl)amino)phenyl)acetamide] | 43.2 nM
CC(=O)Nc1cc(Nc2ncc(C(F)(F)F)c(-c3cn(C)c4cccc(F)c34)n2)ccc1N(C)CCN(C)C [Compound 320, N-(2-((2-(dimethylamino)ethyl)(methyl)amino)-5-((4-(4-fluoro-1-methyl-1H-indol-3-yl)-5-(trifluoromethyl)pyrimidin-2-yl)amino)phenyl)acetamide] | 91.1 nM
CC(=O)Nc1cc(Nc2ncc(C(F)(F)F)c(-c3c[nH]c4ccc(F)cc34)n2)ccc1N(C)CCN(C)C [Compound 321, N-(2-((2-(dimethylamino)ethyl)(methyl)amino)-5-((4-(5-fluoro-1H-indol-3-yl)-5-(trifluoromethyl)pyrimidin-2-yl)amino)phenyl)acetamide] | 14.8 nM
CN(C)CCN(C)c1ccc(Nc2ncc(C(F)(F)F)c(-c3c[nH]c4ccc(F)cc34)n2)cc1N [Compound 322, N^1-(2-(dimethylamino)ethyl)-N^4-(4-(5-fluoro-1H-indol-3-yl)-5-(trifluoromethyl)pyrimidin-2-yl)-N^1-methylbenzene-1,2,4-triamine] | 8.3 nM
CCN(CCN(C)C)c1ccc(Nc2ncc(C(F)(F)F)c(-c3c[nH]c4ccc(F)cc34)n2)cc1NC(C)=O [Compound 323, N-(2-((2-(dimethylamino)ethyl)(ethyl)amino)-5-((4-(5-fluoro-1H-indol-3-yl)-5-(trifluoromethyl)pyrimidin-2-yl)amino)phenyl)acetamide] | 18.9 nM
CCN(CCN(C)C)c1ccc(Nc2ncc(C(F)(F)F)c(-c3c[nH]c4ccc(F)cc34)n2)cc1N [Compound 324, N^1-(2-(dimethylamino)ethyl)-N^1-ethyl-N^4-(4-(5-fluoro-1H-indol-3-yl)-5-(trifluoromethyl)pyrimidin-2-yl)benzene-1,2,4-triamine] | 17.5 nM
CC(=O)Nc1cc(Nc2ncc(C(F)(F)F)c(-c3cn(C)c4ccc(F)cc34)n2)ccc1N(C)CCN(C)C [Compound 325, N-(2-((2-(dimethylamino)ethyl)(methyl)amino)-5-((4-(5-fluoro-1-methyl-1H-indol-3-yl)-5-(trifluoromethyl)pyrimidin-2-yl)amino)phenyl)acetamide] | 39.4 nM
CN(C)CCN(C)c1ccc(Nc2ncc(C(F)(F)F)c(-c3cn(C)c4ccc(F)cc34)n2)cc1N [Compound 326, N^1-(2-(dimethylamino)ethyl)-N^4-(4-(5-fluoro-1-methyl-1H-indol-3-yl)-5-(trifluoromethyl)pyrimidin-2-yl)-N^1-methylbenzene-1,2,4-triamine] | 58.2 nM
CN(C)CCN(C)c1ccc(Nc2ncc(C(F)(F)F)c(-c3cn(C)c4ccc(F)cc34)n2)cc1NCC(F)(F)F [Compound 327, N^1-(2-(dimethylamino)ethyl)-N^4-(4-(5-fluoro-1-methyl-1H-indol-3-yl)-5-(trifluoromethyl)pyrimidin-2-yl)-N^1-methyl-N^2-(2,2,2-trifluoroethyl)benzene-1,2,4-triamine] | 260 nM
CC(=O)Nc1cc(Nc2ncc(C(F)(F)F)c(-c3c[nH]c4cc(F)ccc34)n2)ccc1N(C)CCN(C)C [Compound 328a, N-(2-((2-(dimethylamino)ethyl)(methyl)amino)-5-((4-(6-fluoro-1H-indol-3-yl)-5-(trifluoromethyl)pyrimidin-2-yl)amino)phenyl)acetamide] | 34.1 nM
CC(=O)Nc1cc(Nc2nc(-c3c[nH]c4cc(F)ccc34)ncc2C(F)(F)F)ccc1N(C)CCN(C)C [Compound 328b, N-(2-((2-(dimethylamino)ethyl)(methyl)amino)-5-((2-(6-fluoro-1H-indol-3-yl)-5-(trifluoromethyl)pyrimidin-4-yl)amino)phenyl)acetamide] | 2420 nM
CN(C)CCN(C)c1ccc(Nc2ncc(C(F)(F)F)c(-c3c[nH]c4cc(F)ccc34)n2)cc1N [Compound 329, N^1-(2-(dimethylamino)ethyl)-N^4-(4-(6-fluoro-1H-indol-3-yl)-5-(trifluoromethyl)pyrimidin-2-yl)-N^1-methylbenzene-1,2,4-triamine] | 72.1 nM
CCC(=O)Nc1cc(Nc2ncc(C(F)(F)F)c(-c3c[nH]c4cc(F)ccc34)n2)ccc1N(CC)CCN(C)C [Compound 330a, N-(2-((2-(dimethylamino)ethyl)(ethyl)amino)-5-((4-(6-fluoro-1H-indol-3-yl)-5-(trifluoromethyl)pyrimidin-2-yl)amino)phenyl)propionamide] | 292 nM
CCC(=O)Nc1cc(Nc2nc(-c3c[nH]c4cc(F)ccc34)ncc2C(F)(F)F)ccc1N(CC)CCN(C)C [Compound 330b, N-(2-((2-(dimethylamino)ethyl)(ethyl)amino)-5-((2-(6-fluoro-1H-indol-3-yl)-5-(trifluoromethyl)pyrimidin-4-yl)amino)phenyl)propionamide] | > 3330 nM
CCN(CCN(C)C)c1ccc(Nc2ncc(C(F)(F)F)c(-c3c[nH]c4cc(F)ccc34)n2)cc1NC(C)=O [Compound 331a, N-(2-((2-(dimethylamino)ethyl)(ethyl)amino)-5-((4-(6-fluoro-1H-indol-3-yl)-5-(trifluoromethyl)pyrimidin-2-yl)amino)phenyl)acetamide] | 32.3 nM
CCN(CCN(C)C)c1ccc(Nc2nc(-c3c[nH]c4cc(F)ccc34)ncc2C(F)(F)F)cc1NC(C)=O [Compound 331b, N-(2-((2-(dimethylamino)ethyl)(ethyl)amino)-5-((2-(6-fluoro-1H-indol-3-yl)-5-(trifluoromethyl)pyrimidin-4-yl)amino)phenyl)acetamide] | 2020 nM
CCN(CCN(C)C)c1ccc(Nc2ncc(C(F)(F)F)c(-c3c[nH]c4cc(F)ccc34)n2)cc1N [Compound 332, N^1-(2-(dimethylamino)ethyl)-N^1-ethyl-N^4-(4-(6-fluoro-1H-indol-3-yl)-5-(trifluoromethyl)pyrimidin-2-yl)benzene-1,2,4-triamine] | 127 nM
CC(=O)Nc1cc(Nc2ncc(C(F)(F)F)c(-c3cn(C)c4cc(F)ccc34)n2)ccc1N(C)CCN(C)C [Compound 333, N-(2-((2-(dimethylamino)ethyl)(methyl)amino)-5-((4-(6-fluoro-1-methyl-1H-indol-3-yl)-5-(trifluoromethyl)pyrimidin-2-yl)amino)phenyl)acetamide] | 28.5 nM
